Data taken from article PMC6718478, “A Comprehensive Antimicrobial Activity Evaluation of the Recombinant Microcin J25 Against the Foodborne Pathogens Salmonella and E. coli O157:H7 by Using a Matrix of Conditions” (Frontiers in Microbiology, 2019).
Positions of bridges follow the written chain, without caps; N, C: chain ends. Residues, ends and D or L forms follow the SMILES beside them.

Key:
S. Pullorum CVCC1791 = assay: Antimicrobial activity (killing) curves; assay type: cell-based, Salmonella Pullorum
Procedure: To further address the activity of recombinant MccJ25, antimicrobial activity curves and Live/Dead viability assay were performed. A single colony of S. Pullorum CVCC1791, S. Typhimurium ATCC14082, and E. coli O157:H7 was inoculated into 5 mL of LB. The culture was then incubated at 37°C with shaking at 200 rpm overnight. The following day, the culture was diluted 1:100 in fresh LB and again incubated at 37°C with shaking at 200 rpm. For antimicrobial activity, the bacteria were grown until they reached log phase. Approximately 5 × 10^4 CFU/mL bacteria were inoculated into 2 mL of LB containing different concentrations of the recombinant MccJ25 (0, 1 × MIC, 2 × MIC, and 4 × MIC). […] The plates were incubated at 37°C overnight to count colony. Colonies were counted to determine CFU/mL. The experiment was conducted with two replicates in three independent trials.

S. Typhimurium = assay: Antimicrobial activity in biological food products (skim milk, egg yolk, mincemeat extract); assay type: cell-based, Salmonella Typhimurium; settings: 4 × MIC, SKM, 37°C; for viable bacteria after 24 h in the three food products: SEY, SMS, data not shown
Procedure: To further investigate the effects of recombinant MccJ25 on Salmonella and E. coli O157:H7 in different biological food products, sterile skim milk, egg yolk and mincemeat (pork) extract were collected and used as described previously with minor modifications ([Sable et al., 2000]). The skim milk, egg and mincemeat samples were purchased from a Carrefour store in Beijing. Specimens were kept on ice packs in coolers until they reached the laboratory, where they were stored at 4°C. The skim milk (SKM) and mincemeat supernatant (SMS) were autoclave sterilized at 121°C for 20 min. After autoclaving, the SKM and SMS samples were stored at 4°C for further use. The eggs were sterilized with 75% ethanol and transferred into an exceptionally clean bench to collect the egg yolk (SEY). The SEY was diluted 1:1 with sterile distilled water. Biological product samples were mixed with a final concentration of 4 × MIC of recombinant MccJ25 solution in sterile saline water (0.85%). They were then inoculated with S. Pullorum, S. […] Sterilized saline water (SSW) with the recombinant MccJ25 was utilized for comparison. This assay was performed to obtain the desired quantity of cells. The mixtures were tested after 24 h of incubation at 37°C with shaking (250 rpm). After incubation, Salmonella species and E. coli O157:H7 were serially diluted with PBS and plated on LB and TSA agar. The plates were incubated at 37°C overnight to count colony. Colonies were counted to determine CFU/mL. The experiment was conducted with two replicates in three independent trials.

S. Pullorum [1] = assay: Thermal stability, inhibition zone read-out; assay type: physicochemical, Salmonella Pullorum; settings: temperatures as high as 121°C for 20 min; 150 μL of 1 × MIC; Oxford cup inhibition zone on LB agar, overnight 37°C; three replicate experiments
Procedure: […] The assays were conducted as described previously ([Chen et al., 2009]; [Meng et al., 2019]), with slight modifications. LB agar inoculated with the indicator bacteria S. Pullorum (approximately 10^5 viable cells per mL) was poured over plates fitted with Oxford cups to make wells. 150 μL of 1 × MIC final concentration of recombinant MccJ25 samples previously treated under various conditions were added to the wells. The agar overlays were incubated overnight at 37°C, and the inhibition zones were recorded.

S. Pullorum [2] = assay: TEM of morphology and intracellular alteration; assay type: cell-based, Salmonella Pullorum
Procedure: For TEM sample preparation, (1) two milliliters of 2 × 10^6 cells of S. Pullorum broth cultured in the absence or presence of 1×, 2× and 4× MIC of the recombinant MccJ25 were incubated and collected at 1 h. (2) After that, approximately 2 × 10^6 S. Pullorum cells were incubated at 37°C for […] with the recombinant MccJ25 at 2 × MIC for 2, 3, and 4 h. They were then centrifuged at 5,000 × g for 5 min. Pretreatment of bacterial samples was conducted in the same way as the SEM treatment. Finally, the samples were placed in capsules containing embedding medium and heated at 70°C for approximately 9 h. Specimens were stained with uranyl acetate and alkaline lead citrate for 15 min. They were then observed by TEM (Model JEM-1230, JEOL, Japan).

IPEC-J2 cells = assay: Salmonella-induced damage to IPEC-J2 cells (TEER, FD4, LDH); assay type: cell-based; settings: 2 μg/mL for 6 h, Salmonella for 2 h; n = 9
Procedure: FIGURE S2 | Recombinant MccJ25 inhibited Salmonella-induced damage to IPEC-J2 cells. IPEC-J2 cells were cultured with or without recombinant MccJ25 (2 μg/mL) for 6 h in the absence or presence of Salmonella for 2 h. TEER (A), FD4 level (B), and LDH activity (C) in the IPEC-J2 cells were determined. Data are the means ± SEMs of three independent experiments, n = 9. Different superscript lowercase letters within each group indicate significant differences (P < 0.05); The asterisk denotes a significant difference in comparison with the control group (*P < 0.05, **P < 0.01).

Claudin-1 = assay: Tight junction protein mRNA expression in Salmonella-challenged IPEC-J2 cells, real-time PCR; assay type: cell-based; settings: 6 h with recombinant MccJ25, then Salmonella for 2 h, n = 9
Procedure: (§1) IPEC-J2 cells were cultured with or without recombinant MccJ25 for 6 h and then treated with Salmonella for 2 h. Cells were collected, and relative mRNA expression was analyzed by real-time PCR. The data are the means ± SEMs of three independent experiments, n = 9. Different superscript lowercase letters within each group indicate significant differences (P < 0.05).

ZO-1 = assay: as above; assay type: cell-based; settings: 6 h with recombinant MccJ25, then Salmonella for 2 h, n = 9
Procedure: as §1

CC[C@H](C)[C@H](NC(=O)CNC(=O)[C@@H](NC(=O)[C@H](Cc1ccccc1)NC(=O)[C@H](Cc1ccc(O)cc1)NC(=O)[C@@H]1CCC(=O)NCC(=O)NCC(=O)N[C@@H](C)C(=O)NCC(=O)N[C@@H](Cc2c[nH]cn2)C(=O)N[C@@H](C(C)C)C(=O)N2CCC[C@H]2C(=O)N1)C(C)C)C(=O)NCC(=O)N[C@H](C(=O)N1CCC[C@H]1C(=O)N[C@H](C(=O)N[C@@H](CO)C(=O)N[C@@H](Cc1ccccc1)C(=O)N[C@@H](Cc1ccc(O)cc1)C(=O)NCC(=O)O)[C@@H](C)CC)[C@@H](C)O [recombinant MccJ25, microcin J25] (GGAGHVPEYFVGIGTPISFYG-OH; lactam N-8 (inferred); C-terminus assumed)
regrowth in killing curve (S. Pullorum CVCC1791; 1 × MIC, after 8 h of incubation): did not exhibit regrowth | incubation time after which all bacteria were killed (killing curve) (S. Pullorum CVCC1791; 1 × MIC, log phase, ~5 × 10^4 CFU/mL in LB, 37°C, plate counts, n = 6): 4 h | incubation time after which the pathogen was eliminated (killing curve) (S. Pullorum CVCC1791; 4 × MIC, log phase, ~5 × 10^4 CFU/mL in LB, 37°C, plate counts at 0, 2, 4, 6 h, n = 6): 6 h | viable bacteria after 24 h in the three food products (S. Typhimurium; inoculum 10^3 CFU/mL): no viable bacteria were detected | viable bacteria after 24 h in the three food products (S. Typhimurium; inoculum 10^4 CFU/mL): no bacteria were detected | CFU reduction after 24 h (S. Typhimurium; SEY, and SMS, inoculum 10^6 CFU/mL, plate counts, n = 6): approximately 10^3 CFU/mL | influence of temperature on activity against S. Pullorum (thermal stability) (S. Pullorum [1]): no influence | cytoplasmic membrane integrity by TEM (S. Pullorum [2]; 1, 2, or 4 × MIC for 1 h, 2 × 10^6 cells): significantly disrupted the membrane | morphology and intracellular alteration by TEM (S. Pullorum [2]; 2 × MIC for 2, 3, and 4 h): deformed small septa, invisible cytoplasmic membranes, heterogeneous electron density, electron-light regions and thinned cell walls | S. Pullorum-induced decrease in TEER (IPEC-J2 cells): attenuated | S. Pullorum-induced increase in FD4 level (IPEC-J2 cells): attenuated | S. Pullorum-induced increase in LDH level (IPEC-J2 cells): attenuated | mRNA expression of Claudin-1 (Claudin-1): significantly increased | mRNA expression of ZO-1 (ZO-1): significantly increased
